These results are taken from US8927484B2, “Antiviral compounds” (Gilead Sciences, Inc., priority 2009, dated 2015).

Assay [1] deals with Replicon cells harboring H77 (genotype 1a) or Con1 (genotype 1b) HCV RNA and Renilla luciferase reporter. The assay can be described thus: High Throughput Replicon Assay (HTBS). The settings on record: for inhibition at 1 µM: 72 h, read-out: INH @1 μM (Mean). Format: cell-based. The protocol:
High Throughput Replicon Assay (HTBS)
Replicon cells harboring H77 (genotype 1a) or Con1 (genotype 1b) HCV RNA and Renilla luciferase reporter were seeded in 384-well black plates at a density of 1.6×10^3 cells per well in 90 μl of DMEM culture medium, excluding G-418. Compounds were serially diluted in 100% DMSO and added to cells at a 1:225 dilution, achieving a final concentration of 0.44% DMSO in a total volume of 90 μL with a Biotek uFlow Workstation. Cell plates were incubated at 37° C. with 5% CO2 for 3 days, after which culture media were removed and cells were assayed for luciferase activity as a marker for replication level. Luciferase expression was measured using Dual-Glo luciferase assay reagents (Promega, Madison, Wis.). Briefly, 20 μL of Dual-Glo luciferase buffer was added to lyse the cells for 10 min and subsequently 20 μL of a diluted Dual-Glo Stop & Glo substrate (1:100) was added to each well. Luminescence signal was measured on a Perkin Elmer Envision Plate Reader after incubation for 10 minute. Luciferase levels were converted into percentages relative to the untreated controls (defined as 100%) and data were fit to the logistic dose response equation y=a/(1+(x/b)^c) using XLFit4 software (IDBS, Emeryville, Calif.). EC50 values were calculated from the resulting equations.
A general note: Replicon systems follow genome replication, usually without infectious particles.

Another assay deals with T1, HCV NS3 protease (Hepatitis C virus genotype 1a, UniProt P27958).
T1 construct: 2-10 nM of purified NS3 protease domains were pre-incubated
The assay can be described thus: HCV NS3 Protease IC50 Determination (FRET). Format: biochemical. The settings on record: result in words.

T1 sequence (P27958 1027-1208): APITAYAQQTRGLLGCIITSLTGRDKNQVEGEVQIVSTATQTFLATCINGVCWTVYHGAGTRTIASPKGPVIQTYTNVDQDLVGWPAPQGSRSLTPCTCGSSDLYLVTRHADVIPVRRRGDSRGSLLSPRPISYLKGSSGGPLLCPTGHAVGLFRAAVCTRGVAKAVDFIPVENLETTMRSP

With `C=C[C@@H]1C[C@]1(NC(=O)[C@@H]1C[C@@H](Oc2cc(-c3nc(C(C)C)cs3)nc3c(Cl)c(OCCN4CCOCC4)ccc23)[C@H]2CN(C(=O)OC(C)(C)C)[C@H](C3CCOCC3)C(=O)N21)C(=O)NS(=O)(=O)C1CC1` [Example 73], in assay [1], the inhibition at 1 µM is more than 90%.

Take `CC[C@@H]1C[C@]1(NC(=O)[C@@H]1C[C@@H](Oc2cc(-c3nc(C(C)C)cs3)nc3c(Cl)c(OCCN4CCOCC4)ccc23)[C@H]2CN(C(=O)OC(C)(C)C)[C@H](C3CCOCC3)C(=O)N21)C(=O)NS(=O)(=O)C1CC1` [Example 74]: the inhibition at 1 µM in assay [1] was more than 90%.

As to `CC[C@@H]1C[C@]1(NC(=O)[C@@H]1C[C@@H](OC(=O)N2Cc3cccc(F)c3C2)[C@H]2CCCC(=O)N21)C(=O)NS(=O)(=O)C1CC1` [Example 90], in assay [1] (result in words), the “activity in the cellular assay” value is reported as “fails to demonstrate optimal activity”. Besides, on HCV NS3 protease, the “activity in the enzymatic assay” value is “fails to demonstrate optimal activity”.

Turning to `COc1ccc2c(O[C@@H]3C[C@H]4C(=O)N[C@]5(C(=O)NS(=O)(=O)C6CC6)C[C@H]5/C=C\CCCCC[C@@H]5C(=O)N4[C@@H]3CN5C(=O)OC(C)(C)C)cc(-c3cccc(C(C)C)n3)nc2c1Cl` [Example 94], the inhibition at 1 µM in assay [1] is more than 99%.
